Tests used:
[1] = In vivo biodistribution by ICP-MS (Gd); parameters: species or system BALB/c nude mice; details: mouse, iv
p65 in C666 cells = assay: NF‐κB signaling analysis by Western blotting; assay type: cell-based; details: Western blot band density
Text: (§1) NF‐ĸB signaling pathway is critical for the survival of EBV‐infected tumor cells. Here we investigated if our nanoprobes could affect this oncogenic pathway. EBV‐positive LCL3 and C666 cells were used as models, EBV‐negative HK1 cells were used as control and Western blot was used to analyze the protein expression of p65, a major transcription factor in the NF‐ĸB family. […] GAPDH and Histone are regarded as internal standards in cytosolic and nuclear fractions, respectively. […] This is consistent with the cellular uptake results. The negligible differences of p65 expression level in HK1 cells were quantified after various treatments in Figure S28 (Supporting Information).
(§2) EBV‐positive C666, LCL3 and EBV‐negative HK1 cell pellets were treated with phosphatase and protease inhibitors at 0–4 °C for 30 min. The total protein concentrations were calculated by protein absorbance. The protein was resolved by sodium dodecyl sulfate‐polyacrylamide gel electrophoresis (SDS‐PAGE) and transferred to cellulose filter membranes. The membranes were blocked with 3% BSA in tris‐buffered saline in 0.1% Tween 20 (TBST) for 1 h with gentle shaking and subsequently incubated with primary antibodies (1:1000) in 3% BSA in TBST at 4 °C for overnight. […] Lastly, the density of bands was determined by image analysis system after washing with TBST buffer three times.

p65 in LCL3 cells = assay: NF‐κB signaling analysis by Western blotting; assay type: cell-based; details: Western blot band density
Text: as §1, §2

Substance	Tumor uptake [1]	Decreased p65 expression, nuclear fraction (p65 in C666 cells) [%]	Decreased p65 expression, nuclear fraction (p65 in LCL3 cells) [%]
NaGdF4:Yb^3+, Er^3+@NaGdF4 [UCNP]	nearly undetectable		
‐Ahx‐YFMVFGGRrRKGGFWLY [P5]		89	86

Reference: paper PMC7927616, “Dual‐Targeting Peptide‐Guided Approach for Precision Delivery and Cancer Monitoring by Using a Safe Upconversion Nanoplatform” (Advanced Science, 2021)
